From article PMC6530537, “Efficient development of stable and highly functionalised peptides targeting the CK2α/CK2β protein–protein interaction” (Chemical Science, 2019) come the findings set out here.

Substitutions are numbered along the chain they refer to. Where a SMILES comes first, the peptide text is derived from it. Bridges are numbered along the chain shown (N, C = ends). [ ]: non-standard residue; d: D form. Dap(N3) = [N-]=[N+]=NC[C@H](N)C(=O)O

One data set concerns U2OS cells. The data set is described as follows: cells. Type of data set: cell-based, human. Conditions: Homo sapiens, 96 h; U2OS cells, 4 day incubation, SYTOX green imaging, average of at least four independent repeats; read-out: GI50. The protocol:
(§1) page 47: 1.5. Biological experimental 1.5.1. […] The experiment was performed in duplicates. 1.5.2. […] 1.5.3. […] 46

Another data set concerns HCT116 cells. The data set is described as follows: cells. Conditions: Homo sapiens, HCT-116, 96 h; HCT116 cells, 4 day incubation, SYTOX green imaging, average of at least four independent repeats; read-out: GI50. The class given is cell-based, human. On the procedure:
as §1

Data set [1] has as its target T1, CK2α (Homo sapiens, UniProt P68400).
T1 construct: CK2α_WT was used (residues 2-329); His6 (N, cleaved yes); made in house; host or cells: Escherichia coli BL21(DE3)
T1 sequence (P68400 2-329): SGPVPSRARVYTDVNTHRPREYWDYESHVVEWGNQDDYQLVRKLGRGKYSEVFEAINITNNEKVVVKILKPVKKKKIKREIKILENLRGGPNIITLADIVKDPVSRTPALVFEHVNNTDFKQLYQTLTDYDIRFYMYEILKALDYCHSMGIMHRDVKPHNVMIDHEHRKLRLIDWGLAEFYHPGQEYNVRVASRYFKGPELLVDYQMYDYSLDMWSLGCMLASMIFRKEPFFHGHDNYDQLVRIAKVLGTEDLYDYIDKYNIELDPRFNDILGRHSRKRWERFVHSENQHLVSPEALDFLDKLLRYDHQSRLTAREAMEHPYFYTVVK
The data set can be described thus: Fluorescence polarisation assay: displacement of fluorescein-labelled CK2β-derived probe from CK2α. Type of data set: binding. Conditions: FP, 15 µM test compound, 450 nM CK2α, 7.4 nM CK2β_pep probe, 350 mM NaCl, 20 mM Mes pH 6.5, 30 min incubation, triplicates; approximate; read-out: % inhibition at 15 μM (CK2β-like probe displacement). An excerpt:
Molecular modelling identified Cys2 and Gly11 of Pc,[34] corresponding to P185 and P194 of CK2β, as suitable residues to staple: they make negligible contributions to the binding and are positioned at a suitable distance from each other to accommodate a 2C-CuAAC staple (ESI, Fig. S1 ^†). To cyclise the peptide, azido amino acids bearing one-carbon-atom side chains (Fmoc-Aza-OH) were used in combination with aliphatic linkers of different lengths as proposed by molecular modelling (Fig. 2 and ESI Table S1 ^†). The ability of the synthesised macrocycles to disrupt the α/β PPI of CK2 was then tested in a preliminary fluorescent polarisation assay (FP) (Fig. 2). […]
(§2) lysed using a high-pressure homogeniser.
(§3) The soluble supernatant was applied on a […]
(§4) mM NaCl, 1mM DTT, 1mM EDTA, pH 8.5). 100µL of the precision protease was loaded onto the […]
Pure protein was concentrated to 15 mg/mL and flash frozen in liquid N2.
1.4.2. Fluorescent Polarisation anisotropy
Approximate % inhibition of
The experiment was performed in triplicates.
(§5) 1.4.3. Isothermal Calorimetry Titration
(§6) 1.4.3.1. Direct binding assay
(§7) DMSO) and concentrated to 20-50 μM. Compounds in 100× stock solutions were diluted into the […]
(§8) Control titrations were performed, and the […]
On the technique in general: Polarisation of emitted light reports the rotation of a fluorescent probe.

For data set [2] the following is noted: pH 6.5.
Data set [3] deals with T2, CK2α (Homo sapiens, UniProt P68400, K74A/K75A/K76A/R21S).
T2 construct: CK2α_KA (residues 2 -329) contained four; His6 (N, cleaved yes); made in house; host or cells: Escherichia coli BL21(DE3)
T2 sequence (P68400 2-329 R21S/K74A/K75A/K76A): T1 sequence (P68400 2-329) with R20S, K73A, K74A, K75A
The data set is described as follows: Isothermal titration calorimetry, direct binding to CK2α. The settings on record: ITC, 25°C, CK2α_KA, Tris 200 mM, NaCl 300 mM, 10% DMSO, single site binding model. On the procedure: as §2, §3, §4
Pure protein was concentrated to 15 mg/mL and flash frozen in liquid N2. […]
as §5, §6, §7, §8
For orientation: Isothermal titration calorimetry measures the heat released or taken up as one component is titrated into another.

The target of another data set is T3, CK2α/CK2β interaction (Homo sapiens, UniProt P68400).
T3 construct: CK2α_WT was used (residues 2-329); His6 (N, cleaved yes); made in house; host or cells: Escherichia coli BL21(DE3)
T3 sequence (P68400 2-329): T1 sequence (P68400 2-329)
The data set can be described thus: ITC competition assay: CK2β binding to CK2α alone and in the presence of peptide. Conditions: 25°C. The protocol:
We then wanted to investigate whether the peptides would be able to inhibit the binding of the β subunit to the α subunit. To this end, the binding affinity of the regulatory β subunit for the catalytic domain was determined via ITC (Kd 9 nM). This was then repeated in the presence of 100 μM P1-C4 and P2-C4 (ESI, Table S4 ^†). […] As one of the key roles of CK2β is to recruit substrates to the kinase, the effect of PPI inhibition on substrate phosphorylation was studied using CK2β dependent and independent substrates. […] It should be noted that the kinase assay was performed using the pre-formed CK2α/β complex as the ability of CK2α to phosphorylate eIF2β requires the presence of the CK2β subunit.
1.4.3.2. Competition assay […]
concentrated to 4-6 μM. CK2β (9.3 mg/mL, 20 mM Tris pH 8.5, 500 mM NaCl) was diluted in Tris buffer (200 mM, NaCl, 300 mM, 10% DMSO) and concentrated to 40 μM. In a typical experiment, […]
performed at 150 second intervals. The syringe was loaded with CK2β and rotated at 750 rpm. The same experiment was repeated in the presence of the peptide s: compounds at 1 mM in DMSO were added to the solutions of CK2α and CK2β (prepared as described above) to a final concentration of […]
binding model using Origin software. […]
(CK2β-RAD) 200s, baseline 120s (assay buffer), control loading 200s (RAD), baseline 150s (assay buffer), ligand binding (association) 400s (CK2α K74A and CAM7117) and ligand dissociation 600s (assay buffer), followed by regeneration and next cycles. […]
GraphPad. The results are the average of 4 repeats and error shown as SEM.
Figure S10- Sensorgrams of the BLI competition experiments to assess the ability of P2-C4 to […] the CK2α/CK2β-RAD complex. a) Concentration of peptide ranging from 10 to 0.025 μM and 0 μM. b) Concentration of peptide ranging from 10 to 5 nM and 0 nM.
(1 picture or pasted object on this page, not shown here)

Take `O=C(O)c1ccc2c(c1)nc(Nc1cccc(Cl)c1)c1ccncc12` [CX4945, reference compound]: the GI50 with U2OS cells was 7 ± 1 µM; in the data set with HCT116 cells, 14 ± 2 µM.

`CC[C@H](C)[C@@H]1NC(=O)[C@H](CCCCN)NC(=O)[C@H](Cc2ccccc2)NC(=O)CNC(=O)[C@H](Cc2ccc(O)cc2)NC(=O)[C@H](CC(C)C)NC(=O)[C@H](CCCNC(=N)N)NC(=O)[C@@H](NC(C)=O)Cn2cc(nn2)CCc2cn(nn2)C[C@@H](C(N)=O)NC(=O)[C@H](Cc2c[nH]cn2)NC1=O` [P0-C1]: the inhibition at 15 µM on CK2α [1] came to 0.6 ± 0.5%.

Turning to `CC[C@H](C)[C@@H]1NC(=O)[C@H](CCCCN)NC(=O)[C@H](Cc2ccccc2)NC(=O)CNC(=O)[C@H](Cc2ccc(O)cc2)NC(=O)[C@H](CC(C)C)NC(=O)[C@H](CCCNC(=N)N)NC(=O)[C@@H](NC(=O)CNC(C)=O)Cn2cc(nn2)Cc2cn(nn2)C[C@@H](C(=O)NCC(=O)NCC(N)=O)NC(=O)[C@H](Cc2c[nH]cn2)NC1=O` [P1-C3], the “Solubility under the assay conditions” value in data set [2] is reported as “insoluble”.

As for `CC[C@H](C)[C@@H]1NC(=O)[C@H](CCCCN)NC(=O)[C@H](Cc2ccccc2)NC(=O)CNC(=O)[C@H](Cc2ccc(O)cc2)NC(=O)[C@H](CC(C)C)NC(=O)[C@H](CCCNC(=N)N)NC(=O)[C@@H](NC(=O)CNC(C)=O)Cn2cc(nn2)-c2cc(C(=O)O)cc(c2)-c2cn(nn2)C[C@@H](C(=O)NCC(=O)NCC(N)=O)NC(=O)[C@H](Cc2c[nH]cn2)NC1=O` [P1-C4], at CK2α [3], the affinity, expressed as Kd, was 0.46 µM. In addition, the “Binding of CK2β to CK2α in the presence of peptide” value on CK2α/CK2β interaction (100 μM peptide, preliminary assay) is “no binding of CK2β to CK2α was detected”. Moreover, the inhibition at 15 µM on CK2α [1] worked out at 93 ± 1%.

The molecule `CC(=O)NCC(=O)N[C@@H](CN=[N+]=[N-])C(=O)N[C@@H](CCCNC(=N)N)C(=O)N[C@@H](CC(C)C)C(=O)N[C@@H](Cc1ccc(O)cc1)C(=O)NCC(=O)N[C@@H](Cc1ccccc1)C(=O)N[C@@H](CCCCN)C(=O)N[C@@H](Cc1c[nH]c2ccccc12)C(=O)N[C@@H](Cc1c[nH]cn1)C(=O)N[C@@H](CN=[N+]=[N-])C(=O)NCC(=O)NCC(N)=O` [P2] (Ac-G[Dap(N3)]RLYGFKWH[Dap(N3)]GG-NH2) showed a Kd at CK2α [3] of 44 µM.

`CC[C@H](C)[C@@H]1NC(=O)[C@H](CCCCN)NC(=O)[C@H](Cc2ccccc2)NC(=O)CNC(=O)[C@H](Cc2ccc(O)cc2)NC(=O)[C@H](CC(C)C)NC(=O)[C@H](CCCNC(=N)N)NC(=O)[C@@H](NC(=O)CNC(C)=O)CSSC[C@@H](C(=O)NCC(N)=O)NC(=O)CNC(=O)[C@H](Cc2c[nH]cn2)NC1=O` [Pc, reference compound] (Ac-GCRLYGFKIHGCG-NH2; disulfide 2-12) had a Kd on CK2α [3] of 1 µM.

Consider “CK2β: regulatory β subunit of CK2, recombinant construct (1-198)”, for which the Kd in the data set with CK2α/CK2β interaction (CK2β in the syringe, CK2α in the cell, no peptide, read-out: Kd of the regulatory β subunit for the catalytic domain CK2α) is 0.009 µM.

On to “GXC2RLYGFKIHXC2GG (sidechain bridge or staple) [P1-C2]”, for which the “Solubility under the assay conditions” value in data set [2] is reported as “insoluble”.

As a reminder, the GI50 is the concentration at which growth is held to half of that of the control. For orientation: inhibition means how much of the control response was suppressed. As usually defined, the Kd is the free concentration of one partner at which half of the binding sites on the other are occupied at equilibrium, for simple one-to-one binding.
